From PubChem BioAssay (NCI)
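Five compound concentrations were applied to cells in 96-well plates for 48 hours; endpoints were derived by simple linear interpolation of the resulting dose-response curve. The concentration for 50% growth inhibition is given as GI50. TGI denotes the concentration required for complete inhibition of growth.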

Key:
Test in all cases: NCI-60 cell line screen, 48 h
[1] = test system: A549 NSCLC
[2] = test system: CAKI-1 renal
[3] = test system: HCC-2998 colon
[4] = test system: HCT-116 colon
[5] = test system: NCI/ADR-RES ovarian
[6] = test system: OVCAR-4 ovarian
[7] = test system: SNB-19 CNS
[8] = test system: SNB-75 CNS
[9] = test system: SW-620 colon
[10] = test system: UACC-257 melanoma

CC1=C(C(=O)Nc2ccc(F)c(Cl)c2)C(c2ccccc2O)NC(=O)N1 (stereo not drawn)
GI50 [1]: > 100 µM | TGI [1]: > 100 µM | GI50 [2]: > 100 µM | TGI [2]: > 100 µM | GI50 [3]: > 100 µM | TGI [3]: > 100 µM | GI50 [4]: 51.7 µM | TGI [4]: > 100 µM | GI50 [5]: > 100 µM | TGI [5]: > 100 µM | GI50 [6]: 12.2 µM | TGI [6]: 68.6 µM | GI50 [7]: > 100 µM | TGI [7]: > 100 µM | GI50 [8]: 40 µM | TGI [8]: > 100 µM | GI50 [9]: > 100 µM | TGI [9]: > 100 µM | GI50 [10]: > 100 µM | TGI [10]: > 100 µM

Nc1n[nH]c2ccc([C@@H]3Nc4cc5[nH]ncc5cc4[C@H]4C5CCC(C5)[C@@H]34)cc12 (stereo partly drawn)
GI50 [1]: 0.584 µM | TGI [1]: > 100 µM | GI50 [2]: 0.355 µM | TGI [2]: > 39.2 µM | GI50 [3]: 0.789 µM | TGI [3]: 49.1 µM | GI50 [4]: 0.416 µM | TGI [4]: > 100 µM | GI50 [5]: 0.807 µM | TGI [5]: > 100 µM | GI50 [6]: 9.3 µM | TGI [6]: > 100 µM | GI50 [7]: 0.436 µM | TGI [7]: > 100 µM | GI50 [8]: 0.27 µM | TGI [8]: 22.9 µM | GI50 [9]: 0.392 µM | TGI [9]: > 100 µM | GI50 [10]: 14.9 µM | TGI [10]: > 78.4 µM

COc1cccc(C2C(C#N)=C(N)Oc3c2ccc2ccccc32)c1 (stereo not drawn)
GI50 [1]: 0.0232 µM | TGI [1]: 17.6 µM | GI50 [2]: < 0.01 µM | TGI [2]: 14 µM | GI50 [3]: 0.0355 µM | TGI [3]: 1.1 µM | GI50 [4]: < 0.0128 µM | TGI [4]: 3.42 µM | GI50 [5]: < 0.01 µM | TGI [5]: 0.391 µM | TGI [6]: 18.6 µM | GI50 [7]: 0.0322 µM | TGI [7]: 20.5 µM | GI50 [8]: < 0.0151 µM | TGI [8]: 15.1 µM | GI50 [9]: < 0.015 µM | TGI [9]: 17.8 µM | GI50 [10]: 0.901 µM | TGI [10]: 32.8 µM

O=C(Nc1ccccc1Cl)c1cccc(NC2=C(Cl)C(=O)N(Cc3ccccc3)C2=O)c1
GI50 [1]: 49.3 µM | TGI [1]: > 100 µM | GI50 [2]: 23.2 µM | TGI [2]: 66.9 µM | GI50 [3]: 20.5 µM | TGI [3]: 54.5 µM | GI50 [4]: 3.18 µM | TGI [4]: 13.3 µM | GI50 [5]: 46.4 µM | TGI [5]: > 100 µM | GI50 [6]: 3.63 µM | TGI [6]: 75.8 µM | GI50 [7]: 60.5 µM | TGI [7]: > 100 µM | GI50 [8]: 3.55 µM | TGI [8]: > 100 µM | GI50 [9]: 26.1 µM | TGI [9]: > 100 µM | GI50 [10]: 24.3 µM | TGI [10]: > 100 µM

O=NN(CCCl)C(=O)NC1CCC(=O)NC1=O (stereo not drawn)
TGI [1]: 811 µM | TGI [2]: 659 µM | TGI [3]: > 1160 µM | TGI [4]: 605 µM | TGI [5]: 710 µM | TGI [6]: > 993 µM | TGI [7]: 934 µM | TGI [8]: 396 µM | TGI [9]: 270 µM | TGI [10]: 975 µM

O=c1c(O)cccn1CCCN(CCCn1cccc(O)c1=O)CCn1cccc(O)c1=O
GI50 [1]: 4.03 µM | TGI [1]: 75.2 µM | GI50 [2]: 4.79 µM | TGI [2]: > 100 µM | GI50 [3]: 5.18 µM | TGI [3]: > 100 µM | GI50 [4]: 2.85 µM | TGI [4]: > 100 µM | GI50 [5]: > 100 µM | TGI [5]: > 100 µM | GI50 [6]: 3.95 µM | TGI [6]: > 100 µM | GI50 [7]: 3.78 µM | TGI [7]: > 100 µM | GI50 [8]: 6.1 µM | TGI [8]: 88.2 µM | GI50 [9]: 9.02 µM | TGI [9]: > 100 µM | GI50 [10]: 3.42 µM | TGI [10]: 22.4 µM

CCN1C(=O)N(CC)C2C1NN=c1s/c(=C\c3ccc[nH]3)c(=O)n12 (stereo not drawn)
GI50 [1]: 0.523 µM | TGI [1]: > 100 µM | GI50 [2]: 0.301 µM | TGI [2]: > 100 µM | GI50 [3]: 1.82 µM | TGI [3]: > 100 µM | GI50 [4]: 0.453 µM | TGI [4]: > 100 µM | GI50 [5]: 0.413 µM | TGI [5]: > 100 µM | GI50 [6]: 1.68 µM | TGI [6]: > 100 µM | GI50 [7]: 0.626 µM | TGI [7]: > 100 µM | GI50 [8]: 0.14 µM | TGI [8]: 0.598 µM | GI50 [9]: 0.326 µM | TGI [9]: > 100 µM | GI50 [10]: > 100 µM | TGI [10]: > 100 µM

CC(=O)O.CC(=O)O.CC(=O)O.CC(=O)O.[Rh].[Rh]
GI50 [1]: 28.6 µM | TGI [1]: > 100 µM | GI50 [2]: 12.2 µM | TGI [2]: 30.7 µM | GI50 [3]: 24 µM | TGI [3]: 56.7 µM | GI50 [4]: 24.1 µM | TGI [4]: 94.1 µM | GI50 [5]: 30.2 µM | TGI [5]: 92.2 µM | GI50 [6]: 37 µM | TGI [6]: > 100 µM | GI50 [7]: 60 µM | TGI [7]: > 100 µM | GI50 [8]: 30.5 µM | TGI [8]: > 100 µM | GI50 [9]: 22 µM | TGI [9]: > 100 µM | GI50 [10]: 19.5 µM | TGI [10]: 64.8 µM

COc1cccc(CC(C)=C(c2ccc(OCCCN(C)C)cc2)c2ccc(OCCCN(C)C)cc2)c1
GI50 [1]: 0.557 µM | TGI [1]: 1.44 µM | GI50 [2]: 0.683 µM | TGI [2]: 1.95 µM | GI50 [3]: 0.446 µM | TGI [3]: 0.906 µM | GI50 [4]: 0.447 µM | TGI [4]: 0.839 µM | GI50 [5]: 0.548 µM | TGI [5]: 1.28 µM | GI50 [6]: 0.575 µM | TGI [6]: 1.41 µM | GI50 [7]: 0.905 µM | TGI [7]: 3.34 µM | GI50 [8]: 0.619 µM | TGI [8]: 1.77 µM | GI50 [9]: 0.434 µM | TGI [9]: 0.867 µM | GI50 [10]: 0.498 µM | TGI [10]: 1.09 µM

O=c1cccc(C#CC#CCCCO)o1
GI50 [1]: 17.8 µM | TGI [1]: > 58.8 µM | GI50 [2]: 2.9 µM | TGI [2]: 8.17 µM | GI50 [3]: 2.58 µM | TGI [3]: 7.38 µM | GI50 [4]: 3.06 µM | TGI [4]: 8.49 µM | GI50 [5]: 9.47 µM | TGI [5]: > 44.2 µM | GI50 [6]: 8.59 µM | TGI [6]: > 57.9 µM | GI50 [7]: 9.13 µM | TGI [7]: 39.1 µM | GI50 [8]: 18.2 µM | TGI [8]: 66.3 µM | GI50 [9]: 2.67 µM | GI50 [10]: 3.48 µM | TGI [10]: 15.8 µM
